pIC50: −log10 of the molar value. Structures can show the parent of a compound that is named as a salt.
Target: Putative heat shock protein HSP 90-alpha A4 (Homo sapiens, UniProt Q58FG1)
Test: Fluorescence Polarization (FP) Assay
Description: The fluorescence polarization (FP) assay was performed as described in the reference (Bioorg Med Chem. 2010. 18:6031-6043).

Putative heat shock protein HSP 90-alpha A4, sequence (Q58FG1 whole entry): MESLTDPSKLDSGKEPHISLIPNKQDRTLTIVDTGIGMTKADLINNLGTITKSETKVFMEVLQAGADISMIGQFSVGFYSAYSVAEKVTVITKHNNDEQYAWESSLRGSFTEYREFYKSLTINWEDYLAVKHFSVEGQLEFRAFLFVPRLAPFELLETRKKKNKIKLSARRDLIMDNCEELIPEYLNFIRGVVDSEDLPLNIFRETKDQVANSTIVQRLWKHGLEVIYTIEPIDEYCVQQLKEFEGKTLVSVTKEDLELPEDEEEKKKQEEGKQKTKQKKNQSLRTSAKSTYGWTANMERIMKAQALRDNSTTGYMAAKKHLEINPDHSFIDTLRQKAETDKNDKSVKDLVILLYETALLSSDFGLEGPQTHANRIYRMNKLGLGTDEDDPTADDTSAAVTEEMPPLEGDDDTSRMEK

Row | pIC50 | Structure (SMILES)
1 | < 4.00 | NC(=O)c1ccc(-c2noc3c2CCCC3O)cc1 (configuration not stated) [4-(7-Hydroxy-4,5,6,7-tetrahydro-benzo[d]isoxazol-3-yl)benzamide (22)]
2 | < 4.00 | NC(=O)c1ccc(-c2noc3c2CCCC3=NOCCN2CCOCC2)cc1 [4-(7-(2-Morpholin-4-yl-ethoxyimino)-4,5,6,7-tetrahydrobenzo[d]isoxazol-3-yl)benzamide (21b)]
3 | 5.96 | C=CCNC1=C2C[C@@H](C)C[C@H](OC)C[C@@H](C)/C=C/[C@H](OC(N)=O)[C@@H](OC)/C=C\C=C(/C)C(=O)NC(=CC1=O)C2=O [17-AAG]
4 | < 4.00 | NC(=O)c1ccc(-c2noc3c2CCCC3=NO)cc1 [4-(7-Hydroxyimino-4,5,6,7-tetrahydro-benzo[d]isoxazol-3-yl)benzamide (21a)]
5 | < 4.00 | NC(=O)c1ccc(-c2noc3c2CCCC3=O)cc1 [4-(7-Oxo-4,5,6,7-tetrahydrobenzo[d]isoxazol-3-yl)-benzamide (20)]

Continued, compound first:

Row | Structure (SMILES) | pIC50
6 | Oc1cc(O)c(-c2noc3c2CCCC3O)cc1Cl (configuration not stated) [3-(5-chloro-2,4-dihydroxyphenyl)-4,5,6,7-tetrahydro-benzo[d]isoxazol-7-ol (14)] | 4.59
7 | NCCON=C1CCCc2c(-c3cc(Cl)c(O)cc3O)noc21 [3-(5-chloro-2,4-dihydroxyphenyl)-5,6-dihydro-4H-benzo[d]isoxazol-7-one O-(2-aminoethyl)-oxime hydrochloride (16)] | 5.20
8 | O=C1CCCc2c(-c3cc(Cl)c(O)cc3O)noc21 [3-(5-chloro-2,4-dihydroxyphenyl)-5,6-dihydrobenzo[d]isoxazol-7(4H)-one (13)] | 5.32
9 | O=C1NCCc2c(-c3cc(Cl)c(O)cc3O)noc21 [3-(5-chloro-2,4-dihydroxyphenyl)-5,6-dihydroisoxazolo[5,4-c]pyridin-7(4H)-one (9b)] | 5.80
10 | NCCON=C1CCCc2c(-c3ccc(C(N)=O)cc3)noc21 [4-(7-(2-Aminoethoxyimino)-4,5,6,7-tetrahydrobenzo[d]isoxazol-3-yl)-benzamide hydrochloride (21c)] | < 4.00
11 | ON=C1CCCc2c(-c3cc(Cl)c(O)cc3O)noc21 [3-(5-chloro-2,4-dihydroxyphenyl)-5,6-dihydro-4H-benzo[d]isoxazol-7-one oxime (15)] | 6.10
12 | CN1CCc2c(-c3cc(Cl)c(O)cc3O)noc2C1=O [3-(5-chloro-2,4-dihydroxyphenyl)-5,6-dihydro-6-methylisoxazolo[5,4-c]pyridin-7(4H)-one (9a)] | 5.00

From BindingDB's records for doi:10.1111/cbdd.12570 (University of Milano, 2015)
